Measured values as given in ChEMBL document CHEMBL5385895, “Design, synthesis, biological evaluation of urea substituted 1,2,5-oxadiazole-3-carboximidamides as novel indoleamine 2,3-dioxygenase-1 (IDO1) inhibitors” (Eur J Med Chem, 2023).
The source made the active and inactive calls. The rule behind the calls is not given here.

What was measured:
[1] = target: T1, Indoleamine 2,3-dioxygenase 2 (Homo sapiens) (UniProt Q6ZQW0); experiment: Inhibition of human recombinant IDO2 assessed as reduction in N-formylkynurenine formation using L-tryptophan as substrate at 1 uM preincubated for 30 mins followed by substrate addition and measured after 20 mins by SpectraMax microplate reader analysis; conditions: time 50.0 min
T1 sequence (whole entry): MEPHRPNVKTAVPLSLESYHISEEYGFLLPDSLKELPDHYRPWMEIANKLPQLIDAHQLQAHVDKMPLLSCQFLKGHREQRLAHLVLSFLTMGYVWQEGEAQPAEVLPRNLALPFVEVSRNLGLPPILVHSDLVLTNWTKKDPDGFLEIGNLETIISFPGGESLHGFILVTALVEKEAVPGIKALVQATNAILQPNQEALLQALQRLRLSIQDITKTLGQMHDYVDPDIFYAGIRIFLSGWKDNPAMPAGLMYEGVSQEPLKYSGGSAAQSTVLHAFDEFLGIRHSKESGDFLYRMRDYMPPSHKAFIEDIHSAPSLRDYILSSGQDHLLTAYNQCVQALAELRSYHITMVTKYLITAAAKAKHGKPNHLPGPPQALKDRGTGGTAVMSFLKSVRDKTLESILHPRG

[2] = target: Tryptophan 2,3-dioxygenase (Homo sapiens) (UniProt P48775); experiment: Inhibition of human recombinant TDO assessed as reduction in N-formylkynurenine formation using L-tryptophan as substrate at 1 uM preincubated for 30 mins followed by substrate addition and measured after 20 mins by SpectraMax microplate reader analysis; conditions: time 50.0 min
Chain of Tryptophan 2,3-dioxygenase (Homo sapiens) (P48775 whole entry, looked up): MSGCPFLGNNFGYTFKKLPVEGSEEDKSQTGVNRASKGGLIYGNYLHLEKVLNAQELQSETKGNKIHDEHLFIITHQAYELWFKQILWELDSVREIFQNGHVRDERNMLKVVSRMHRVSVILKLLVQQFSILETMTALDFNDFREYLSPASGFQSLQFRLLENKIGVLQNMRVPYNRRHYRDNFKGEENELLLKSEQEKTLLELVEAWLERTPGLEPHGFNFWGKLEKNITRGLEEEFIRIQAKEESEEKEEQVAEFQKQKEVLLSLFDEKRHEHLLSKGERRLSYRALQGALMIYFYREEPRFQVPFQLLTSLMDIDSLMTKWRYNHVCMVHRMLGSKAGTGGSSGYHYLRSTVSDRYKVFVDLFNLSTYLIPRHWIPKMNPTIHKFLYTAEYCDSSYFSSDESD

[3] = target: T2, Indoleamine 2,3-dioxygenase 1 (Homo sapiens, UniProt P14902); experiment: Inhibition of human recombinant IDO1 assessed as reduction in N-formylkynurenine formation using L-tryptophan as substrate preincubated for 30 mins followed by substrate addition and measured after 20 mins by SpectraMax microplate reader analysis
T2 sequence (P14902 whole entry): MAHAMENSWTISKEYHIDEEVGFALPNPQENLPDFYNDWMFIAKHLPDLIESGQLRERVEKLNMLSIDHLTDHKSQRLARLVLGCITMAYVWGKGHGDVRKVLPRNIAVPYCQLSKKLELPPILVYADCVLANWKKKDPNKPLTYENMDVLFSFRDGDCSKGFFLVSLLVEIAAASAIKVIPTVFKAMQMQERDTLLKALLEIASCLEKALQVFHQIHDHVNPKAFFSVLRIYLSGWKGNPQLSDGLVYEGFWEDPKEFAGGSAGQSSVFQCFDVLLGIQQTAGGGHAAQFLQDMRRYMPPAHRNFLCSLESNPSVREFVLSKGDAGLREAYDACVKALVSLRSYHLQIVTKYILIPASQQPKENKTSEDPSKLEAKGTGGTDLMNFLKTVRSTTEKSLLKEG

[4] = target: T2, Indoleamine 2,3-dioxygenase 1; experiment: Inhibition of IDO1 in IFN-gamma-induced human HeLa cells assessed as reduction in N-formylkynurenine formation using L-tryptophan as substrate preincubated for 24 hrs followed by substrate addition and measured after 30 mins by SpectraMax microplate reader analysis; assay type: cell-based
[5] = Oral bioavailability in Sprague-Dawley rat at 25 mg/kg by LC-MS/MS analysis; assay type: ADME, organism-based; conditions: in vivo
[6] = Cmax in Sprague-Dawley rat at 5 mg/kg, iv by LC-MS/MS analysis; assay type: ADME, organism-based; set-up: dose 5 mg/kg, route iv; conditions: in vivo
[7] = Half life in Sprague-Dawley rat at 25 mg/kg, po by LC-MS/MS analysis; assay type: ADME, organism-based; conditions: in vivo
[8] = Tmax in Sprague-Dawley rat at 25 mg/kg, po by LC-MS/MS analysis; assay type: ADME, organism-based; conditions: in vivo
[9] = AUC (0 to t) in Sprague-Dawley rat at 25 mg/kg, po by LC-MS/MS analysis; assay type: ADME, organism-based; set-up: dose 25 mg/kg, route po; conditions: in vivo
[10] = Apparent permeability of the compound across apical to basolateral side in dog MDCK-II cells measured for 2 hrs by LC-MS/MS analysis; assay type: ADME, cell-based, Canis lupus familiaris
[11] = AUC (0 to infinity) in Sprague-Dawley rat at 25 mg/kg, po by LC-MS/MS analysis; assay type: ADME, organism-based; set-up: dose 25 mg/kg, route po; conditions: in vivo
[12] = Apparent permeability of the compound across basolateral to apical side in dog MDCKII cells measured for 2 hrs by LC-MS/MS analysis; assay type: ADME, cell-based, Canis lupus familiaris, MDCK-II; conditions: MDCK
[13] = AUC (0 to t) in Sprague-Dawley rat at 5 mg/kg, iv by LC-MS/MS analysis; assay type: ADME, organism-based; set-up: dose 5 mg/kg, route iv; conditions: in vivo
[14] = AUC (0 to infinity) in Sprague-Dawley rat at 5 mg/kg, iv by LC-MS/MS analysis; assay type: ADME, organism-based; set-up: dose 5 mg/kg, route iv; conditions: in vivo
[15] = Tmax in Sprague-Dawley rat at 5 mg/kg, iv by LC-MS/MS analysis; assay type: ADME, organism-based; conditions: in vivo
[16] = Half life in Sprague-Dawley rat at 5 mg/kg, iv by LC-MS/MS analysis; assay type: ADME, organism-based; conditions: in vivo
[17] = Volume of distribution in Sprague-Dawley rat at 5 mg/kg, iv by LC-MS/MS analysis; assay type: ADME, organism-based; conditions: in vivo
[18] = Plasma clearance in Sprague-Dawley rat at 5 mg/kg, iv by LC-MS/MS analysis; assay type: ADME, organism-based
[19] = test system: HCT-116; experiment: cells; conditions: Homo sapiens, HCT-116, 24 h
[20] = test system: CT26; experiment: cells; conditions: Mus musculus, CT26, 24 h
[21] = cells; conditions: Mus musculus, Lung cancer cell line, 24 h
[22] = test system: HeLa; experiment: cells; conditions: Homo sapiens, 24 h
[23] = Anti-tumor efficacy against mouse LLC cells implanted in C57BL/6 mouse assessed as tumor growth inhibition at 100 mg/kg, po bid treated for 21 days relative to control; assay type: functional; conditions: Lewis lung carcinoma, 504 h, time 21 day, read-out: TGI

inhibition [1] | inhibition [2] | IC50 [3] [nM] | IC50 [4] [nM] | SMILES | further results
inactive | inactive | > 1000 | – | COCCCNC(=O)Nc1nonc1/C(=N/O)Nc1ccc(F)c(Br)c1 | –
inactive | inactive | 148 | 43.7 | COc1ccc(NC(=O)Nc2nonc2/C(=N/O)Nc2ccc(F)c(Br)c2)cc1 | –
– | – | – | – | NS(=O)(=O)NCCNc1nonc1C(=NO)Nc1ccc(F)c(Br)c1 [EPACADOSTAT] | bioavailability [5]: 12.4%; Cmax [6]: 2430 ng/mL; half-life [7]: 133 min; Tmax [8]: 18.6 min; AUC(0-t) [9]: 472 ng·h/mL; Papp A→B at 2 h [10]: 3.12 ×10⁻⁶ cm/s; AUC(0-inf) [11]: 530 ng·h/mL; Papp B→A at 2 h [12]: 7.36 ×10⁻⁶ cm/s; AUC(0-t) [13]: 836 ng·h/mL; AUC(0-inf) [14]: 856 ng·h/mL; Tmax [15]: 1.98 min; half-life [16]: 38.4 min; Vd [17]: 5.73 L/kg; clearance [18]: 102 mL/min/kg
inactive | inactive | 347 | – | CN(C)C(=O)Nc1nonc1/C(=N/O)Nc1ccc(F)c(Br)c1 | –
inactive | inactive | 847 | – | O=C(NCC1CCCCC1)Nc1nonc1/C(=N/O)Nc1ccc(F)c(Br)c1 | –
inactive | inactive | 159 | 103 | CCCCNC(=O)Nc1nonc1/C(=N/O)Nc1ccc(F)c(Br)c1 | –
inactive | inactive | 222 | 92.3 | CCCNC(=O)Nc1nonc1/C(=N/O)Nc1ccc(F)c(Br)c1 | –
inactive | inactive | 311 | – | O=C(Nc1ccc(Cl)cc1)Nc1nonc1/C(=N/O)Nc1ccc(F)c(Br)c1 | –
inactive | inactive | 544 | – | O=C(Nc1nonc1/C(=N/O)Nc1ccc(F)c(Br)c1)NC1CCCCC1 | –
inactive | inactive | 77 | 30.2 | O=C(NCC1CC1)Nc1nonc1/C(=N/O)Nc1ccc(F)c(Br)c1 | IC50 [19]: 55100 nM; IC50 [20]: > 80000 nM; IC50 [21]: > 50000 nM; IC50 [22]: 54300 nM
inactive | inactive | 314 | – | O=C(Nc1nonc1/C(=N/O)Nc1ccc(F)c(Br)c1)NC1CCCC1 | –
inactive | inactive | 183 | 111 | COc1cccc(NC(=O)Nc2nonc2/C(=N/O)Nc2ccc(F)c(Br)c2)c1 | –
inactive | inactive | 208 | 51.7 | O=C(Nc1ccc(F)cc1)Nc1nonc1/C(=N/O)Nc1ccc(F)c(Br)c1 | –
inactive | inactive | 79.3 | 36.5 | O=C(Nc1nonc1/C(=N/O)Nc1ccc(F)c(Br)c1)NC1CC1 | –
inactive | inactive | 96.3 | 41.7 | CC(C)CNC(=O)Nc1nonc1/C(=N/O)Nc1ccc(F)c(Br)c1 | –
inactive | inactive | 632 | – | O=C(Nc1nonc1/C(=N/O)Nc1ccc(F)c(Br)c1)N1CCC1 | –
inactive | inactive | > 1000 | – | O=C(NCCO)Nc1nonc1/C(=N/O)Nc1ccc(F)c(Br)c1 | –

inhibition [1] | inhibition [2] | IC50 [3] [nM] | IC50 [4] [nM] | SMILES | further results
inactive | inactive | 224 | 68.7 | O=C(Nc1ccc(Br)cc1)Nc1nonc1/C(=N/O)Nc1ccc(F)c(Br)c1 | –
inactive | inactive | > 1000 | – | O=C(Nc1nonc1/C(=N/O)Nc1ccc(F)c(Br)c1)N1CCC(O)C1 (stereo not given) | –
inactive | inactive | 298 | – | COc1ccccc1NC(=O)Nc1nonc1/C(=N/O)Nc1ccc(F)c(Br)c1 | –
inactive | inactive | 118 | 44.6 | CNC(=O)Nc1nonc1/C(=N/O)Nc1ccc(F)c(Br)c1 | –
inactive | inactive | > 1000 | – | O=C(Nc1nonc1/C(=N/O)Nc1ccc(F)c(Br)c1)N1CCCCC1 | –
inactive | inactive | 612 | – | CN1CCN(C(=O)Nc2nonc2/C(=N/O)Nc2ccc(F)c(Br)c2)CC1 | –
inactive | inactive | 109 | 41.1 | O=C(NCC1CCC1)Nc1nonc1/C(=N/O)Nc1ccc(F)c(Br)c1 | –
inactive | inactive | > 1000 | – | CN(C)CCNC(=O)Nc1nonc1/C(=N/O)Nc1ccc(F)c(Br)c1 | –
inactive | inactive | 197 | 49.5 | O=C(Nc1ccccc1)Nc1nonc1/C(=N/O)Nc1ccc(F)c(Br)c1 | –
inactive | inactive | 331 | – | COc1ccc(NC(=O)Nc2nonc2/C(=N/O)Nc2ccc(F)c(Br)c2)cc1OC | –
inactive | inactive | > 1000 | – | O=C(Nc1nonc1/C(=N/O)Nc1ccc(F)c(Br)c1)N1CCCC1 | –
inactive | inactive | – | – | NS(=O)(=O)NCCNc1nonc1/C(=N/O)Nc1ccc(F)c(Br)c1 [EPACADOSTAT] | IC50 [19]: 36300 nM; IC50 [20]: 64600 nM; inhibition in vivo at 100 mg/kg [23]: 38.8%; IC50 [21]: > 50000 nM; IC50 [22]: 59800 nM
inactive | inactive | 82.6 | 58.2 | CC(C)NC(=O)Nc1nonc1/C(=N/O)Nc1ccc(F)c(Br)c1 | –
inactive | inactive | > 1000 | – | NCCNC(=O)Nc1nonc1/C(=N/O)Nc1ccc(F)c(Br)c1 | –
inactive | inactive | 166 | 31.7 | O=C(Nc1nonc1/C(=N/O)Nc1ccc(F)c(Br)c1)NC1CCC1 | –
inactive | inactive | > 1000 | – | NCCCCNC(=O)Nc1nonc1/C(=N/O)Nc1ccc(F)c(Br)c1 | –
inactive | inactive | > 1000 | – | NCCCNC(=O)Nc1nonc1/C(=N/O)Nc1ccc(F)c(Br)c1 | –
